Biological target: Cytochrome P450 3A4 (Homo sapiens, UniProt P08684)
Test: CYP450 Enzyme Induction Study
Description: A final incubation system of 500 μL contained 50 μL of liver microsomes (protein concentration: 0.2 mg/mL, Corning), 1 μL of mixed specific substrates of CYP450 (CYP1A2, CYP2B6, CYP2C9, CYP2C19, CYP2D6, CYP3A4), 398 μL of PBS (pH 7.4), 1 μL of specific positive inhibitor (positive control) or test compound (in acetonitrile) and 50 μL of NADPH+MgCl2. Samples were prepared in duplicate of 0.5 mL for each CYP450 subtype. For each tube, the 450 μL mixed solution of substrates and enzyme and the NADPH solution were separately pre-incubated at 37° C. for 5 min. The 50 μL mixed solution of NADPH+MgCl2 was added for reaction. At 30 min, 50 μL of the mixture was taken and 300 μL of glacial acetonitrile containing an internal standard was added to terminate the reaction. Additionally, 2 blanks of 500 μL each were prepared in parallel without adding NADPH as the negative control group.

Cytochrome P450 3A4, sequence (P08684 whole entry): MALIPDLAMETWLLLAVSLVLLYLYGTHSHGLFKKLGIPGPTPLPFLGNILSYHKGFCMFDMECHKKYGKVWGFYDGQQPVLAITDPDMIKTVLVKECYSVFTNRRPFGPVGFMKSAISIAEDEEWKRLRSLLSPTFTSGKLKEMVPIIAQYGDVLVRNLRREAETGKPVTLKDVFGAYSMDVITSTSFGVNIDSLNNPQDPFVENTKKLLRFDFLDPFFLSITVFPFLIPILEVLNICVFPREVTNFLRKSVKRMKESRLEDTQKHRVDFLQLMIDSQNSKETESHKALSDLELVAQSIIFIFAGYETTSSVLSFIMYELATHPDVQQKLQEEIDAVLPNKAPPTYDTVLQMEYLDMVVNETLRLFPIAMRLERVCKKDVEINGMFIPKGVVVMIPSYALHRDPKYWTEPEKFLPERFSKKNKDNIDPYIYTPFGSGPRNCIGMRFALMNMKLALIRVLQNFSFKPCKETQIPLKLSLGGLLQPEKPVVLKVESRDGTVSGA

Compound: Cc1c(C(=O)Nc2ccc(F)c(C#N)c2)c(C)n(C)c1C(=O)C(=O)NC(C)C(F)(F)F (stereo unspecified) [US12378192, Compound of formula I]
- IC50: > 200 µM

— BindingDB's records for patent US12378192 (Chia Tai Tianqing Pharmaceutical Group Co., 2025)
